Molecular target: T1, GST-human KRas166 (G12V) GPPNHP (Homo sapiens, UniProt P01116, G12V)
T1 construct: made in house; host or cells: E. coli C41(DE3)
Assay: KRas small-molecule screening by SPR (Biacore T200)
Assay type: binding
Conditions: compound 100 uM, 5% DMSO buffer; immobilised GST-KRas166 (G12V) GPPNHP
Protocol: For SPR assays pGEX-KRAS(G12V) plasmid was transformed into E. coli C41(DE3). Bacterial cells were cultured at 37° C. to an OD600 of 0.6 and induced with IPTG (final 0.1 mM) at 18° C. over night. The GST fusion proteins were extracted from bacteria pellets after cell disruption in 140 mM NaCl, 2.7 mM KCl, 10 mM NaH2PO4, 1.8 mM KH2PO4, 1 mM EDTA, 2 mM MgCl2 pH 7.4 and purified by glutathione-sepharose column chromatography (GE Healthcare), eluting with 50 mM Tris-HCl pH8.0, 10 mM reduced glutathione, 1 mM DTT, 2 mM MgCl2. The eluted proteins were dialysed against 50 mM Tris-HCl pH8.0, 1 mM DTT, 2 mM MgCl2 and concentrated to 10 mg/ml using a Biomax-30 ULTRAFREE-15 centrifugal filter device (Millipore). Purified KRAS protein was loaded with GPPNHP as described elsewhere (Pacold et al., 2000). Loaded protein was then purified by gel filtration on a HiLoad Superdex-75 HR column (GE Healthcare) in 1×PBS pH7.4, 5 mM MgCl2 and concentrated for storage.
Protocol for KRas Small-Molecule Screening and Affinity Measurements by SPR
To a previously immobilized CM5 chip (GE Healthcare BR-1005-30) with anti GST antibody via amine coupling method, GST in channel 1 and GST-human KRas166 (G12V) GPPNHP in channel 2 were immobilised. GST was immobilised between 2,000 and 5,000 Response units. KRAS166 (G12V) was immobilized between 10,000 to 15,000 Response Units.
In a 96 well plate, compounds were diluted in […], 5 mM MgCl2 and 5% DMSO Buffer to a final concentration of 100 uM. DCAl was used as positive control. Experiment also included a solvent correction curve for 5% DMSO. Screening and evaluation of the protein immobilization and the compounds screening was done accordingly to the BIACORE T200 control and evaluation software.
Calculations for how many response units are required for a 1:1 ratio of compound/protein interaction are shown below. • Protein immobilisation: 10,000 RU; average fragment 300 Da in size. • Rmax=(MWA/MWL)×RL×SM • MWA is the molecular weight of the analyte in Da • MWL is the molecular weight of the ligand in Da • RL is the immobilization level in RU • SM is the molar stoichiometry (assume 1:1) • Rmax=300/47,500×10,000×1 • Rmax=63 RU. Cell Viability Assay protocols Assay 1

SPR Response Units [Response Units] | Compound
26 | N[C@H]1CC[C@@H](NC(=O)Nc2ccnc(-c3cccc4c3OC(CNC(=O)C3CCOCC3)CO4)c2)C1 (stereo partly drawn) [Example 142, tetrahydro-pyran-4-carboxylic acid (8-{4-[3-((1R,3S)-3-amino-cyclopentyl)-ureido]-pyridin-2-yl}-2,3-dihydro-benzo[1,4]dioxin-2-ylmethyl)-amide]
17 | COc1cccc(-c2cccc3c2OC(CO)CO3)n1 (stereo not drawn) [Example 2, [8-(6-Methoxy-pyridin-2-yl)-2,3-dihydro-benzo[1,4]dioxin-2-yl]-methanol]
23 | COc1nc(-c2cccc3c2OCCO3)ccc1Nc1cccc(C(=O)NCc2cccc(F)n2)c1 [Example 168, 3-[6-(2,3-Dihydro-benzo[1,4]dioxin-5-yl)-2-methoxy-pyridin-3-ylamino]-N-(6-fluoro-pyridin-2-ylmethyl)-benzamide]
16 | COc1nc(-c2cccc3c2OCCO3)ccc1Nc1ccc(C(=O)NCc2cc[nH]c(=O)c2)cc1 [Example 161]
32 | CN(C)Cc1cccc(Nc2ccnc(-c3cccc4c3OC(CNC(=O)C3CCOCC3)CO4)c2)c1 (stereo not drawn) [Example 140, tetrahydro-pyran-4-carboxylic acid {8-[4-(3-dimethylaminomethyl-phenylamino)-pyridin-2-yl]-2,3-dihydro-benzo[1,4]dioxin-2-ylmethyl}-amide]
84 | COc1cc(NC(=O)[C@@H]2CCNC2)cc(-c2cccc3c2OCCO3)n1 [Example 17, (R)-Pyrrolidine-3-carboxylic acid [2-(2,3-dihydro-benzo[1,4]dioxin-5-yl)-6-methoxy-pyridin-4-yl]-amide]
37 | COc1cccc(-c2cccc3c2OC(CN2C(=O)NC4(CCN(C)CC4)C2=O)CO3)n1 (stereo not drawn) [Example 34, 3-[8-(6-Methoxy-pyridin-2-yl)-2,3-dihydro-benzo[1,4]dioxin-2-ylmethyl]-8-methyl-1,3,8-triaza-spiro[4.5]decane-2,4-dione]
111 | COc1nc(-c2cccc3c2OC(CNC(=O)C2CCOCC2)CO3)ccc1Nc1ccc(C(=O)N(C)C)cc1 (stereo not drawn) [Example 94, Tetrahydro-pyran-4-carboxylic acid {8-[5-(4-dimethyl-carbamoyl-phenylamino)-6-methoxy-pyridin-2-yl]-2,3-dihydro-benzo[1,4]dioxin-2-ylmethyl}-amide]
31 | CN(C)Cc1cccc(Nc2ccc(-c3cccc4c3OCCO4)nn2)c1 [Example 67a, [6-(2,3-Dihydro-benzo[1,4]dioxin-5-yl)-pyridazin-3-yl]-(3-dimethylaminomethyl-phenyl)-amine]
30 | COc1nc(-c2cccc3c2OCCO3)ccc1NC(=O)CC1CCN(C)CC1 [Example 113, N-[6-(2,3-Dihydro-benzo[1,4]dioxin-5-yl)-2-methoxy-pyridin-3-yl]-2-(1-methyl-piperidin-4-yl)-acetamide]
80 | COc1nc(-c2cccc3c2OC(CNC(=O)C2CCOCC2)CO3)ccc1NC(=O)N[C@H]1CC[C@@H](N)C1 (stereo partly drawn) [Example 141, tetrahydro-pyran-4-carboxylic acid (8-{5-[3-((1S,3R)-3-amino-cyclopentyl)-ureido]-6-methoxy-pyridin-2-yl}-2,3-dihydro-benzo[1,4]dioxin-2-ylmethyl)-amide]
109 | COc1nc(-c2cccc3c2OCCO3)ccc1Nc1cccc(CNC(=O)c2cn[nH]c2)c1 [Example 81, 1H-Pyrazole-4-carboxylic acid 3-[6-(2,3-dihydro-benzo[1,4]dioxin-5-yl)-2-methoxy-pyridin-3-ylamino]-benzylamide]
58 | COc1ccc(N2CC(=O)N(CC3COc4cccc(-c5cccc(OC)n5)c4O3)C2=O)cn1 (stereo not drawn) [Example 36, 1-(6-Methoxy-pyridin-3-yl)-3-[8-(6-methoxy-pyridin-2-yl)-2,3-dihydro-benzo[1,4]dioxin-2-ylmethyl]-imidazolidine-2,4-dione]
4.6 | OCC1COc2cccc(-c3ccc(OCCN4CCOCC4)cn3)c2O1 (stereo not drawn) [Example 110, {8-[5-(2-Morpholin-4-yl-ethoxy)-pyridin-2-yl]-2,3-dihydro-benzo[1,4]dioxin-2-yl}-methanol]
14 | COc1cccc(-c2cccc3c2OC(CNC(=O)C2CCN(C)CC2)CO3)n1 (stereo not drawn) [Example 50, 1-Methyl-piperidine-4-carboxylic acid [8-(6-methoxy-pyridin-2-yl)-2,3-dihydro-benzo[1,4]dioxin-2-ylmethyl]-amide]
79 | CN(C)Cc1cccc(Nc2ccc(-c3cccc4c3OCCO4)nc2)c1 [Example 59, [6-(2,3-Dihydro-benzo[1,4]dioxin-5-yl)-pyridin-3-yl]-(3-dimethylaminomethyl-phenyl)-amine]
40 | COc1nc(Nc2cccc3c2OC(CNC(=O)c2ccc(CN4CCN(C)CC4)o2)CO3)ccc1NC(=O)[C@H]1CCCN1 (stereo partly drawn) [Example 131, (R)-Pyrrolidine-2-carboxylic acid{2-methoxy-6-[3-({[5-(4-methyl-piperazin-1-ylmethyl)-furan-2-carbonyl]-amino}-methyl)-2,3-dihydro-benzo[1,4]dioxin-5-ylamino]-pyridin-3-yl}-amide]
43 | COc1nc(-c2cccc3c2OCCO3)ccc1Nc1ccc(C(=O)NCc2cccc(C)n2)cc1 [Example 174, 4-[6-(2,3-Dihydro-benzo[1,4]dioxin-5-yl)-2-methoxy-pyridin-3-ylamino]-N-(6-methyl-pyridin-2-ylmethyl)-benzamide]
33 | COc1nc(-c2cccc3c2OCCO3)ccc1NC1CCN(C(C)=O)CC1 [Example 99, 1-{4-[6-(2,3-Dihydro-benzo[1,4]dioxin-5-yl)-2-methoxy-pyridin-3-ylamino]-piperidin-1-yl}-ethanone]
140 | COc1nc(-c2cccc3c2OC(CNC(=O)C2CCOCC2)CO3)ccc1Nc1cccc(CN2CCN(C(C)=O)CC2)c1 (stereo not drawn) [Example 90, Tetrahydro-pyran-4-carboxylic acid (8-{5-[3-(4-acetyl-piperazin-1-ylmethyl)-phenylamino]-6-methoxy-pyridin-2-yl}-2,3-dihydro-benzo[1,4]dioxin-2-ylmethyl)-amide]
28 | COc1cccc(-c2cccc3c2OC(CNCc2cccnc2)CO3)n1 (stereo not drawn) [Example 28, [8-(6-Methoxy-pyridin-2-yl)-2,3-dihydro-benzo[1,4]dioxin-2-ylmethyl]-pyridin-3-ylmethyl-amine]
75 | COc1cc(NC(=O)N[C@@H]2CC[C@H](N)C2)cc(-c2cccc3c2OCCO3)n1 [Example 136, 1-((1R,3S)-3-Amino-cyclopentyl)-3-[2-(2,3-dihydro-benzo[1,4]dioxin-5-yl)-6-methoxy-pyridin-4-yl]-urea]
96 | COc1cc(NC(=O)[C@@H]2CC[C@H](N)C2)cc(-c2cccc3c2OCCO3)n1 [Example 133, (1R,3S)-3-Amino-cyclopentanecarboxylic acid[2-(2,3-dihydro-benzo[1,4]dioxin-5-yl)-6-methoxy-pyridin-4-yl]-amide]
58 | COc1cccc(-c2cccc3c2OC(CNCC2CCN(C)CC2)CO3)n1 (stereo not drawn) [Example 27, [8-(6-Methoxy-pyridin-2-yl)-2,3-dihydro-benzo[1,4]dioxin-2-ylmethyl]-(1-methyl-piperidin-4-ylmethyl)-amine]
31 | COc1cccc(-c2cccc3c2OC(CN2C(=O)CN(C4CCNCC4)C2=O)CO3)n1 (stereo not drawn) [Example 37, 3-[8-(6-Methoxy-pyridin-2-yl)-2,3-dihydro-benzo[1,4]dioxin-2-ylmethyl]-1-piperidin-4-yl-imidazolidine-2,4-dione]
57 | COc1cc(NC(=O)N[C@@H]2CC[C@H](N)C2)cc(-c2cccc3c2OC(CNC(=O)C2CCOCC2)CO3)n1 (stereo partly drawn) [Example 135]
52 | CN(C)CCOc1ccc(C(=O)NCC2COc3cccc(-c4cccc(=O)[nH]4)c3O2)cc1 (stereo not drawn) [Example 53, 4-(2-dimethylamino-ethoxy)-N-[8-(6-oxo-1,6-dihydro-pyridin-2-yl)-2,3-dihydro-benzo[1,4]dioxin-2-ylmethyl]-benzamide]
